The results in this text go back to patent US4628115A, “Substituted 4-acetyl-3-hydroxyphenoxy alkanoic acids” (Hoffmann-La Roche Inc., priority 1985, dated 1986).

Read-outs that look alike come from different tables or passages of the source.

Test [1] deals with SRS-A induced constriction of the guinea pig ileum. As to the kind of experiment: Guinea Pig Ileum, In Vitro (SRS-A antagonism). It is filed as cell-based. The settings on record: Cavia porcellus. The procedure:
The guinea pig ileum bioassay system has been described by Orange and Austen, Adv. Immunol. […] A 1.5 cm segment is removed from animals weighing 300-400 g. and suspended in an organ bath containing 10 ml. of Tyrodes solution with 10^-6 M atropine sulfate and 10^-6 M pyrilamine maleate. […] The SRS-A utilized in this screen is obtained by challenging chopped lung fragments from actively sensitized guinea pigs with egg albumin, in vitro. A dose-response curve to SRS-A challenge is established for the ileum. […] The drug concentration which inhibits, by 50%, the SRS-A induced constriction of the guinea pig ileum is determined.

The next test deals with leukotriene E4. The experiment in a line: Guinea Pig Bronchoconstriction, In Vivo (leukotriene E4 i.v. challenge, drug i.v.). Also on record: species or system guinea pig (Hartley strain, male). The conditions noted are these: 10 mg/kg i.v., maximally constrictory dose of leukotriene E4 i.v. The procedure:
Male guinea pigs (Hartley strain) weighing 300 to 450 grams are anesthetized with urethane (2 g/Kg) intraperitoneally and a polyethylene cannula is inserted into the jugular vein for intravenous drug administration. Tracheal pressure is recorded from a cannula inserted in the trachea and connected to a Statham pressure transducer. Respiration is paralyzed with succinyl choline (1.2 mg/kg, i.v.) and the animals are mechanically respirated ([…] rodent respirator) at 40 breaths/minute and 2.5 cc tidal volume. The minutes thereafter, propranolol (0.1 mg/kg, i.v.) is administered. Five minutes later, the animals are pretreated intravenously for 30 seconds (at 10 mg/kg) with test drug or control vehicle. The animals are subsequently challenged with a maximally constrictory dose of leukotriene E4 also administered intravenously. The change (cm H2 O) between pre and peak ventilatory pressure readings is averaged calculated from the following formula: [formula]

The subject of test [2] is LTE4. As to the kind of experiment: Aerosol Test (LTE4-induced bronchoconstriction, drug by inhalation). It is filed as in vivo, guinea pig (Hartley strain, male). The settings on record: 1% (W/V) aerosol solution, five minute exposure, LTE4 i.v. challenge. The procedure: Male guinea pigs (Hartley strain) weighing 300 to 500 g are anesthetized with urethane (2 g/kg) intraperitoneally and a polyethylene cannula is inserted into the jugular vein for test compound administration. Tracheal pressure is recorded from a cannula inserted in the trachea and connected to a Statham pressure transducer. After surgical preparation of the animals, a period of time is allowed for pulmonary functions to stabilize. For testing purposes, drugs are administered according to the following protocol. Propranolol (0.1 mg/kg) is administered intravenously while the animals breathed spontaneously. Five minutes thereafter, the animals are exposed for a five minute period to a 1% (W/V) aerosol solution of test compound (adjusted to an alkaline pH where necessary for compound solubilization) or to distilled water of the appropriate pH (for control purposes). A Monaghan (Model 750) ultrasonic nebulizer is used to administer all compounds by inhalation. Aqueous solutions are prepared fresh and introduced into the chamber of the nebulizer. The output of the nebulizer is made available to the animal by directing a bias flow of aerosol through a y tube connected to the tracheal cannula. At the end of the exposure period, the animals are paralyzed with succinylcholine (1.2 mg/kg, i.v.) and mechanically respirated (Harvard rodent respirator) at 40 breaths/min and 2.5 cc tidal volume. […]

Test [3] relates to LTE4. The experiment in a line: Rat Skin Permeability, in Vivo (LTE4-induced wheal). The settings on record: 10 mg/kg i.v., LTE4 intradermal, 30 min, 5 animals. The method, then:
In this model the ability of LTE4 to increase vascular permeability in rat skin was utilized. Anesthetized rats, pretreated for 30 minutes with an antihistamine, pyrilamine maleate, (50 mg/kg i.p.) and a serotonin antagonist, methylsergide maleate (4 mg/kg i.p.), were injected intradermally with a dose of LTE4 which gave a maximum wheal (in 0.05 ml saline). After introduction of test drug (at 10 mg/kg, i.v.) the animals were immediately treated intravenously with Evans blue dye i.v. (0.5%) in the tail vein resulting in the formation of a skin wheal. Thirty minutes later the animals were sacrificed and the skin wheal size was measured. The average response in 5 animals (4 intradermal injections per animal) treated with test compound was compared to that obtained in a similar group of control animals to determine the percent inhibition by the drug. A representative compound of the present invention, i.e., 6-(4-acetyl-3-hydroxy-2-propylphenoxy)hexanoic acid, caused a 35% reduction in skin wheal when tested at 10 mg/kg i.v.

Where [4] appears, read: guinea pig ileum, SRS-A challenge at EC50, 37° C., Table I, read-out: In vitro SRSA Antagonism Test, Guinea Pig Ileum IC50.

For orientation: IC50 means the concentration needed to halve the response being measured. As for `CCCc1c(OCCCC#CC(=O)O)ccc(C(C)=O)c1O` [(CH2)3 CC, 6-(4-Acetyl-3-hydroxy-2-propylphenoxy)-2-hexynoic acid], in test [1] (setting [4]), the concentration for half-maximal inhibition (IC50) amounted to 1 µM. Still for that read-out and setting: as for `CCCc1c(OCC(=O)O)ccc(C(C)=O)c1O` [CH2, (4-Acetyl-3-hydroxy-2-propylphenoxy)acetic acid], the figure is 10 µM; as for `CCCc1c(OCCCC(=O)O)ccc(C(C)=O)c1O` [(CH2)3, 4-(4-Acetyl-3-hydroxy-2-propylphenoxy)butanoic acid], 10 µM; as for `CCCc1c(OCCCCCCCC(=O)O)ccc(C(C)=O)c1O` [(CH2)7, 8-(4-Acetyl-3-hydroxy-2-propylphenoxy)octanoic acid], 5 µM. Same read-out and setting: in the case of `CCCc1c(OCCC(=O)O)ccc(C(C)=O)c1O` [(CH2)2, 3-(4-Acetyl-3-hydroxy-2-propylphenoxy)propanoic acid] it was 10 µM. Turning to `CCCc1c(OCC(O)COc2ccc3c(=O)cc(C(=O)O)oc3c2CCC)ccc(C(C)=O)c1O` (centres unmarked) [7-[3-(4-acetyl-3-hydroxy-2-propylphenoxy)-2-hydroxypropoxy]-4-oxo-8-propyl-4 H-1-benzopyran-2-carboxylic acid, reference compound], the “inhibition of leukotriene E4 bronchoconstriction” value in the test on leukotriene E4 is listed as 98%. In test [1] (read-out: IC50 (standard SRS-A antagonist)), the half-inhibitory concentration (IC50) was 0.035 µM. Consider `CCCc1c(OCCOCCC(=O)O)ccc(C(C)=O)c1O` [(CH2)2 O(CH2)2, 3-[2-(4-Acetyl-3-hydroxy-2-propylphenoxy)ethoxy]propanoic acid semihydrate], for which the IC50 in test [1] (setting [4]) was 5 µM. For `CCCc1c(OCC#CCCCC(=O)O)ccc(C(C)=O)c1O` [CH2 CC(CH2)3, 7-(4-Acetyl-3-hydroxy-2-propylphenoxy)-5-heptynoic acid], the IC50 in test [1] (setting [4]) turned out to be 1 µM. With `CCCc1c(OCCOCCOCCOCCC(=O)O)ccc(C(C)=O)c1O` [(CH2)2 O(CH2)2 O(CH2)2 O(CH2)2, 3-[2-[2-[2-(4-Acetyl-3-hydroxy-2-propylphenoxy)ethoxy]ethoxy]ethoxy]propanoic acid semihydrate], in test [1] (setting [4]), the half-maximal inhibitory concentration (IC50) was 6 µM. `CCCc1c(OCCCCCCCCCCC(=O)O)ccc(C(C)=O)c1O` [(CH2)10, 11-(4-Acetyl-3-hydroxy-2-propylphenoxy)undecanoic acid]: the half-inhibitory concentration (IC50) in test [1] (setting [4]) is 10 µM. The same measure, in the same setting: in the case of `CCCc1c(OCCCCCCC(=O)O)ccc(C(C)=O)c1O` [(CH2)6, 7-(4-Acetyl-3-hydroxy-2-propylphenoxy)heptanoic acid] it was 5 µM. For `CCCc1c(OCCCCCC(=O)O)ccc(C(C)=O)c1O` [(CH2)5, 6-(4-Acetyl-3-hydroxy-2-propylphenoxy)hexanoic acid], the “inhibition of the bronchoconstriction” value in the test on LTE4 [2] amounted to 36%. Further, the “reduction in skin wheal” value in the test on LTE4 [3] came out at 35%. Further, the “inhibition of leukotriene E4 bronchoconstriction” value with leukotriene E4 came to 73%. Besides, the concentration for half-maximal inhibition (IC50) in test [1] (setting [4]) amounted to 1 µM. On to `CCCc1c(OCCCCC(=O)O)ccc(C(C)=O)c1O` [(CH2)4, 5-(4-Acetyl-3-hydroxy-2-propylphenoxy)pentanoic acid], for which the IC50 in test [1] (setting [4]) amounted to 5 µM.
